According to ChEMBL document CHEMBL4411257, “Inhibitors of Melanogenesis: An Updated Review” (J Med Chem, 2018):

Columns and labels:
[1] = target: T1, Tyrosinase (Homo sapiens, UniProt P14679)
T1 sequence (P14679 whole entry): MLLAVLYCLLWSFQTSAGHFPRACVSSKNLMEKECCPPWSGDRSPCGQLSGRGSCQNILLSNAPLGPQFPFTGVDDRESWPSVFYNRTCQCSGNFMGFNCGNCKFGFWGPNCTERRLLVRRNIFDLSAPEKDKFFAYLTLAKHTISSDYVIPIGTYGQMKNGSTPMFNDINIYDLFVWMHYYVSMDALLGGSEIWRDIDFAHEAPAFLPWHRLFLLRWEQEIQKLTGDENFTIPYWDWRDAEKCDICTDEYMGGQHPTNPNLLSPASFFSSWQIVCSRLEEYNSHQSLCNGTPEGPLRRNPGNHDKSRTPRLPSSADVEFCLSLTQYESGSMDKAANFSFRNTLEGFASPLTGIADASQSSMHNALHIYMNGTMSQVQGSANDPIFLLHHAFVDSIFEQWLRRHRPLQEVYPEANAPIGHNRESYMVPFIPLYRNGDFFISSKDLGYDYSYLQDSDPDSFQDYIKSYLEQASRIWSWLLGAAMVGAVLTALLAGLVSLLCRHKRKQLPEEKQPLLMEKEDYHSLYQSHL

[2] = target: T2, Tyrosinase (Homo sapiens) (UniProt P14679); assay: Potency index, ratio of kojic acid IC50 to compound IC50 for human tyrosinase
T2 sequence (whole entry): T1 sequence (P14679 whole entry)

[3] = target: T3, Tyrosinase (Agaricus bisporus, UniProt O42713); assay: Inhibition of Agaricus bisporus tyrosinase using L-tyrosine as substrate after 60 mins by spectrophotometric analysis
T3 sequence (O42713 whole entry): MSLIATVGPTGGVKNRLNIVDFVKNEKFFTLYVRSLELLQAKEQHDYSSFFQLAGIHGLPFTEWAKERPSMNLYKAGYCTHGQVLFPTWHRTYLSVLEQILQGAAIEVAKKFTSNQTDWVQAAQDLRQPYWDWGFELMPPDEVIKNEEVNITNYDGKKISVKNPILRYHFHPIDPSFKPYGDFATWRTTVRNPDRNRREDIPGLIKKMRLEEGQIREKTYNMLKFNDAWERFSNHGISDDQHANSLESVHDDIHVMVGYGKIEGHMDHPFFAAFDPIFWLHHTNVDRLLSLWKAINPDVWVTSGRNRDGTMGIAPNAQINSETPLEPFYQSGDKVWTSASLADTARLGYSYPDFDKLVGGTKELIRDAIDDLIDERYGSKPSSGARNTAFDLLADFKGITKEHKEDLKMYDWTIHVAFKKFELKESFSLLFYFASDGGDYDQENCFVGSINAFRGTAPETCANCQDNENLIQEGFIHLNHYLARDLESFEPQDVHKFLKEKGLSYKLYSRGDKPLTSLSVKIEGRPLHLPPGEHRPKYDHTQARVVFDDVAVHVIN

[4] = target: T1, Tyrosinase; assay: biochemical
Description: Inhibition of recombinant human tyrosinase expressed in baculovirus infected Sf9 cells using L-DOPA as substrate by spectrophotometric analysis

[5] = target: T3, Tyrosinase; assay: Inhibition of Agaricus bisporus tyrosinase using L-tyrosine as substrate after 30 mins by spectrophotometric analysis
[6] = target: T2, Tyrosinase (Homo sapiens); assay: Inhibition of human tyrosinase at 1 uM using L-tyrosine as substrate after 30 mins by ELISA relative to control
[7] = target: T4, Tyrosinase (Danio rerio) (UniProt A0A8M1PAD4); assay: Inhibition of tyrosinase in zebrafish assessed as reduction in pigmentation level at 10 uM
T4 sequence (whole entry): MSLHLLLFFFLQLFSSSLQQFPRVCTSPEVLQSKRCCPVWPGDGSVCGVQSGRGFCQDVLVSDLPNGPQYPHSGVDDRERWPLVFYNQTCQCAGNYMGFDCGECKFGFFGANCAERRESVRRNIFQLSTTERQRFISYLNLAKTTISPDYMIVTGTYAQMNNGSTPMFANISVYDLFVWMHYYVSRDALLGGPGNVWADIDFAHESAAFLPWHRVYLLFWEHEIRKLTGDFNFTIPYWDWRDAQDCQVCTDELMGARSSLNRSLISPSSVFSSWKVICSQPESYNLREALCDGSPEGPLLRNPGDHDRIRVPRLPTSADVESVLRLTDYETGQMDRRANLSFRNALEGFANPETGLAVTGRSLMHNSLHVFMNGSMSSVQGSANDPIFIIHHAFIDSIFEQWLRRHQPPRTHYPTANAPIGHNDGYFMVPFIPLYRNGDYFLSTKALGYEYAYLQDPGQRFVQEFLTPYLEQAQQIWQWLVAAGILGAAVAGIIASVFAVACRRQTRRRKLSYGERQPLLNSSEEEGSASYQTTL

[8] = target: T2, Tyrosinase (Homo sapiens); assay: Inhibition of tyrosinase in human epidemal melanocytes assessed as reduction in melanin formation at 1 uM; format: cell-based
[9] = target: T5, Tyrosinase (Mus musculus, UniProt P11344)
T5 sequence (P11344 whole entry): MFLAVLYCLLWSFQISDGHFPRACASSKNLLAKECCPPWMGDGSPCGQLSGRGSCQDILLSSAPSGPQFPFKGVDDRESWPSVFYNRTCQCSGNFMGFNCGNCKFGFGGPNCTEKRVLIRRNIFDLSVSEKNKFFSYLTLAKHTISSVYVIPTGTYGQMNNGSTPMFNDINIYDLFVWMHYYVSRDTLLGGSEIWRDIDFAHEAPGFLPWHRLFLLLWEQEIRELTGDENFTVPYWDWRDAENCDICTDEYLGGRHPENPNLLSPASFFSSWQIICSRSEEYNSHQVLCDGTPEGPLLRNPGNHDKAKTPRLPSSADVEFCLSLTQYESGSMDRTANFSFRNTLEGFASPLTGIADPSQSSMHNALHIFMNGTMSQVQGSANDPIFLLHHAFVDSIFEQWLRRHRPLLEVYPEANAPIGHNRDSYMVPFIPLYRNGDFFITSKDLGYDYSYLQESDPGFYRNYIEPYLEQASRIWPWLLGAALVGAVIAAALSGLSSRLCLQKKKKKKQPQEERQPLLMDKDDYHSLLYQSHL
Description: Inhibition of tyrosinase in mouse B16 cells assessed as reduction in melanin synthesis after 1 hr

[10] = target: T1, Tyrosinase; remark: listed apart in the source
[11] = target: T1, Tyrosinase; assay: Inhibition of tyrosinase (unknown origin) assessed as reduction in monophenolase activity
[12] = target: T1, Tyrosinase; assay: Inhibition of tyrosinase (unknown origin) assessed as reduction in diphenolase activity
[13] = target: T6, Tyrosinase (Agaricus bisporus) (UniProt O42713); assay: Inhibition of Agaricus bisporus tyrosinase at 1000 uM relative to control
T6 sequence (whole entry): T3 sequence (O42713 whole entry)

[14] = target: T5, Tyrosinase; format: cell-based
Description: Inhibition of tyrosinase in mouse B16F10 cells assessed as reduction in melanin synthesis after 2 hrs by spectrophotometric analysis

[15] = target: T3, Tyrosinase
Description: Inhibition of mushroom tyrosinase

[16] = target: T5, Tyrosinase; assay: Inhibition of tyrosinase in mouse B16 cells; format: cell-based
[17] = target: T7, Tyrosinase (Mus musculus) (UniProt P11344); assay: Inhibition of tyrosinase in mouse B16 cells assessed as reduction in alpha-MSH induced melanin synthesis at 30 uM relative to control; format: cell-based
T7 sequence (whole entry): T5 sequence (P11344 whole entry)

[18] = target: T5, Tyrosinase; assay: Inhibition of tyrosinase in mouse B16 cells assessed as reduction in alpha-MSH induced melanin synthesis; format: cell-based
[19] = target: T1, Tyrosinase; assay: Inhibition of human tyrosinase after 120 mins
[20] = Cytotoxicity against mouse B16 cells assessed as cell viability at 1000 uM after 48 hrs by MTT assay relative to control; format: cell-based; settings: read-out: Activity
[21] = target: T2, Tyrosinase (Homo sapiens); assay: Competitive inhibition of recombinant human tyrosinase expressed in baculovirus infected Sf9 cells using L-DOPA as substrate by double-reciprocal plot analysis

## CCCCc1ccc(O)cc1O [RUCINOL]
[1]
  IC50: 21 µM
[2]
  Ratio IC50: 20

## Oc1ccccc1/C=N/c1ccccc1 [2-((PHENYLIMINO)METHYL)PHENOL]
[3]
  IC50: 250 µM

## O=C1/C(=C/c2ccc(=O)n(O)c2)Oc2cc(O)cc(O)c21
[4]
  IC50: 30 µM

## Cc1ccc(S(=O)(=O)Oc2ccccc2/N=N/c2ccc(O)cc2)cc1
[5]
  IC50: 201 µM

## C=C1OC(=O)/C(=C\CCCCCCCCCCCCC)[C@H]1O
[6]
  inhibition: 50%
[7]
  inhibition: 30%
[8]
  inhibition: 40%

## O=C(/C=C/c1ccc(O)cc1O)c1ccc(O)cc1O
[9]
  IC50: 5 µM
[10]
  IC50: 0.07 to 0.21 µM

## COc1ccc(/N=C/c2ccc(O)cc2O)cc1
[5]
  IC50: 51.5 µM

## N[C@@H](Cc1ccccc1)C(=O)N[C@@H](Cc1ccccc1)C(=O)OCc1cc(=O)c(O)c[nH]1
[11]
  IC50: 8.97 µM
[12]
  IC50: 26.2 µM

## Cc1ccc(S(=O)(=O)Oc2ccccc2/N=N/c2ccc(O)cc2O)cc1
[5]
  IC50: 17.9 µM

## Oc1ccc(/C=N/c2ccccc2)cc1
[3]
  IC50: 145 µM

## CC(C)=CCc1c(O)ccc(C(=O)/C=C/c2ccc(O)cc2O)c1O [MORACHALCONE A]
[9]
  IC50: 3.8 µM
[10]
  IC50: 0.08 to 0.82 µM

## Oc1cc(O)cc(-c2cc3ccc(O)cc3o2)c1 [MORACIN M]
[10]
  IC50: 8 µM

## COc1ccc(/C=N/c2ccccc2)cc1
[3]
  IC50: 212 µM

## COc1cc([N+](=O)[O-])ccc1/C=C/C(=N\O)c1ccccc1O
[10]
  IC50: 4.77 µM

## Oc1ccc(/N=N/c2ccccc2O)cc1
[5]
  IC50: 44.1 µM

## C/C(=C\Cc1c(O)ccc(C(=O)/C=C/c2ccc(O)cc2O)c1O)CO
[9]
  IC50: 4 µM
[10]
  IC50: 0.17 µM

## COc1ccc(NC(=O)/C=C/c2ccc(O)c(O)c2)cc1
[13]
  inhibition: 36.8%

## CCCCCCCCn1cc(O)c(=O)cc1COC(=O)[C@@H](N)Cc1ccccc1
[11]
  IC50: 12.6 µM
[12]
  IC50: 12.6 µM

## CN(C)c1ccc(/C=C/C(=N\O)c2ccccc2O)cc1
[10]
  IC50: 7.89 µM

## Oc1ccc(-c2nc(-c3ccncc3)c(-c3ccc(F)cc3)[nH]2)cc1 [SB-202190]
[14]
  IC50: 0.03 µM

## COc1ccc(/N=C/c2ccc(O)c(O)c2)cc1
[5]
  IC50: 61.7 µM

## C=C(C)C(=O)Cc1c(-c2ccc(O)cc2O)oc2c3c(cc(O)c2c1=O)OC(C)(C)C=C3
[10]
  IC50: 290 µM

## CCCCCCCCCCCCC/C=C1\C(=O)O[C@@](C)(OC)[C@@H]1O
[6]
  inhibition: 50%
[7]
  inhibition: 25%
[8]
  inhibition: 40%

## O=C1/C(=C/c2ccc(O)cc2)Oc2cccc(O)c21
[15]
  IC50: 31.7 µM

## OC[C@H]1O[C@@H](Oc2cc(O)cc(/C=C/c3ccc(O[C@@H]4O[C@H](CO)[C@@H](O)[C@H](O)[C@H]4O)cc3O)c2)[C@H](O)[C@@H](O)[C@@H]1O [MULBERROSIDE A]
[16]
  IC50: > 100 µM

## Oc1cccc(/C=C/c2ccc(O)cc2O)c1
[16]
  IC50: 0.8 µM

## Oc1ccc(/N=C/c2ccc(O)c(O)c2)cc1
[5]
  IC50: 17.2 µM

## CC(C)=C/C=C1\O[C@@H]2CC(C)=CC(=O)[C@@H]2[C@]1(C)O [BISABOLANGELONE]
[17]
  inhibition: 99%
[18]
  IC50: 9 µM

## Oc1ccc(O)cc1 [HYDROQUINONE]
[1]
  IC50: 4400 µM

## O=C1C[C@@H](c2ccc(O)cc2O)Oc2cc(O)cc(O)c21
[10]
  IC50: 0.98 µM

## O=C(O)/C=C/c1ccc(O)cc1 [COUMARIC ACID]
[19]
  IC50: 3 µM

## CCCCCCn1cc(O)c(=O)cc1COC(=O)[C@@H](N)Cc1ccccc1
[11]
  IC50: 19.2 µM
[12]
  IC50: 42.8 µM

## CC(C)=CCC[C@](C)(O[C@@H]1O[C@H](CO[C@@H]2O[C@H](CO)[C@@H](O)[C@H](O)[C@H]2O)[C@@H](O)[C@H](O)[C@H]1O)[C@H]1CC[C@]2(C)[C@@H]1[C@H](O)C[C@@H]1[C@@]3(C)CC[C@H](O[C@@H]4O[C@H](CO)[C@@H](O)[C@H](O)[C@H]4O[C@@H]4O[C@H](CO)[C@@H](O)[C@H](O)[C@H]4O)C(C)(C)[C@@H]3CC[C@]12C [GINSENOSIDE RB1]
[20]
  viability at 48 h, 1000 µM: 4.67%

## O=C1/C(=C/c2ccc(O)cc2)Oc2cc(O)ccc21
[15]
  IC50: 38.4 µM

## Oc1cc(O)cc(CCc2ccc(O)cc2O)c1
[16]
  IC50: 0.3 µM

## C[S+]([O-])c1ccc(-c2nc(-c3ccncc3)c(-c3ccc(F)cc3)[nH]2)cc1 (stereo not given) [SB-203580]
[14]
  IC50: 0.034 µM

## O=C(N[C@@H](Cc1ccccc1)C(=O)OCc1cc(=O)c(O)c[nH]1)OCc1ccccc1
[11]
  IC50: 1.95 µM
[12]
  IC50: 2.79 µM

## Oc1ccc(/C=C/c2cc(O)cc(O)c2)cc1 [RESVERATROL]
[10]
  IC50: 250 µM

## O=C1/C(=C/c2ccc(=O)n(O)c2)Oc2cc(O)ccc21
[21]
  Kic: 0.35 µM
[15]
  IC50: 1.5 µM

## O=C1/C(=C/c2ccc(O)cc2)Oc2cc(O)cc(O)c21
[15]
  IC50: 38.7 µM

## CC(C)=CCc1c(O)ccc(C[C@@H]2[C@H](c3c(O)ccc(C(=O)/C=C/c4ccc(O)cc4O)c3O)C=C(C)C[C@H]2c2ccc(O)cc2O)c1O
[10]
  IC50: 4.62 µM
